Results taken from patent US7122624B2, “Parathyroid hormone receptor ligands” (The United States of America as represented by the …, priority 1999, dated 2006).
Read-outs that look alike come from different tables or passages of the source. Values belong to the molecule of their own block, whether it stands above or below them. Non-standard residues stand in square brackets, D forms with d. Residues, ends and D or L forms follow the SMILES beside them. Nle = CCCC[C@H](N)C(=O)O

How the values were obtained:
rat PTH2 receptor = target: T1, rat PTH2 receptor (Rattus norvegicus, UniProt P70555); experiment: cAMP accumulation in COS-7 cells transiently expressing the rat PTH2 receptor; type: cell-based
T1 construct: expressed in transfected cells; host or cells: COS-7 (transient)
Method: To express rat PTH2 receptor in cell culture, a rat hypothalamus cDNA library was prepared in the vector CDM7 amp as described. […] A clone was isolated from a single positive pool by colony hybridization using the same ^32P labeled probe.
(§1) Cell culture supplies were obtained from Life Technologies (Frederick, Md.) except for fetal bovine serum which was from Sigma (St. Louis, Mo.).
(§2) The constructs containing the cDNA sequences of the human PTH2 receptor and β-galactosidase have been previously described.
(§3) All peptides were purchased from either Bachem (Torrance, Calif.) or Peninsula Laboratories (Belmont, Calif.). The letters ‘b,’ ‘r’ and ‘h’ designate the peptide sequence as bovine, rat and human, respectively. […] [α-^32P]dCTP was purchased from ICN Biomedicals (Costa Mesa, Calif.). Bovine hypothalamic extract was prepared by acid extraction, gel-filtration and reverse-phase HPLC as previously described. […] Antagonist inhibitory potency was examined by measuring the concentration-dependence of rPTH(1–34)-stimulated cAMP accumulation in the presence and absence of antagonist.
(§4) Statistical comparison of two sample means was evaluated using the two-tailed Student's t-test. […] Antagonist inhibitory potency was quantified using the pA2, value, the negative logarithm of the concentration of antagonist that produces a two-fold decrease of agonist EC50. This was calculated using the following equation: pA2=((EC50/EC50′)−1)−log [antagonist]

PTH2 receptor [1] = target: T2, PTH2 receptor (Homo sapiens, UniProt P49190); experiment: cAMP accumulation in COS-7 cells transiently expressing the human PTH2 receptor; type: cell-based; set-up: expressed in transfected cells; host or cells: COS-7 (transient)
From the text: as §1, §2, §3, §4

PTH2 receptor [2] = target: T2, PTH2 receptor; experiment: Radioligand displacement binding to HEK293 cell membranes expressing the human PTH2 receptor
human PTH1 receptor [3] = target: T3, human PTH1 receptor (Homo sapiens, UniProt Q03431); experiment: cAMP accumulation in COS-7 cells transiently expressing the human PTH1 receptor; conditions: 20% human plasma
T3 sequence (Q03431 27-593): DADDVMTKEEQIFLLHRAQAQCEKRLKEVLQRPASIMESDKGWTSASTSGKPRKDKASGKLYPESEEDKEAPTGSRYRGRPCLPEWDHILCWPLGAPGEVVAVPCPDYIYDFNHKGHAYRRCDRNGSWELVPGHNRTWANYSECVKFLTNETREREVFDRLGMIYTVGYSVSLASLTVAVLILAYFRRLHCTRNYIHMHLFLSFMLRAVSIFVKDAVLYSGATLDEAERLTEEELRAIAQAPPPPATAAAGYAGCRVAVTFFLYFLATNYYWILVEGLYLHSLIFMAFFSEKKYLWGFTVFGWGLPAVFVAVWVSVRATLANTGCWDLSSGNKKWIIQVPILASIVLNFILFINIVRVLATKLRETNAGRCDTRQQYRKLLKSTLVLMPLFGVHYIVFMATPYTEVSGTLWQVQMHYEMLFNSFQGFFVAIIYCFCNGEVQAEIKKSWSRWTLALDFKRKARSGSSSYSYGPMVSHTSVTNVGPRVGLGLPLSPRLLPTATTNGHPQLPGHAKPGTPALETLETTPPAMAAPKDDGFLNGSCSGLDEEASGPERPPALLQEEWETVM

human PTH1 receptor [4] = target: T3, human PTH1 receptor; experiment: Radioligand displacement binding to HEK293 cell membranes expressing the human PTH1 receptor; conditions: presence of 10 μM GTPγS
[5] = 1 μM antagonist against rPTH(1–34)-stimulated cAMP
[6] = rat receptor response relative to human PTH2 receptor response measured in parallel

T1 sequence (P70555 25-546): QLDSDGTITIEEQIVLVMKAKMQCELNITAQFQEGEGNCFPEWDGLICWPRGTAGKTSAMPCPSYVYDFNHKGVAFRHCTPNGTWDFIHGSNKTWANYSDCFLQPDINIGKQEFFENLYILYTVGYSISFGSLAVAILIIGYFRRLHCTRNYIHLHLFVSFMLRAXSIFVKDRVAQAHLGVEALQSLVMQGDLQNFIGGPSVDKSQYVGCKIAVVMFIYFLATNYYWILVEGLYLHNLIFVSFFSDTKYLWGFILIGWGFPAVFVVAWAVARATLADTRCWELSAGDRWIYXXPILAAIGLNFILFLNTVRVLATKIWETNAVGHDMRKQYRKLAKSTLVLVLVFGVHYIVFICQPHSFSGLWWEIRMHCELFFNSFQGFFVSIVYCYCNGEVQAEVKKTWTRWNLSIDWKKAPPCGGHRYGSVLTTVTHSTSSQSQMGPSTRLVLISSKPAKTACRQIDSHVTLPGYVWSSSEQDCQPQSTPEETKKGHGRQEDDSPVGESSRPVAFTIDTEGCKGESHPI
T2 sequence (P49190 25-550): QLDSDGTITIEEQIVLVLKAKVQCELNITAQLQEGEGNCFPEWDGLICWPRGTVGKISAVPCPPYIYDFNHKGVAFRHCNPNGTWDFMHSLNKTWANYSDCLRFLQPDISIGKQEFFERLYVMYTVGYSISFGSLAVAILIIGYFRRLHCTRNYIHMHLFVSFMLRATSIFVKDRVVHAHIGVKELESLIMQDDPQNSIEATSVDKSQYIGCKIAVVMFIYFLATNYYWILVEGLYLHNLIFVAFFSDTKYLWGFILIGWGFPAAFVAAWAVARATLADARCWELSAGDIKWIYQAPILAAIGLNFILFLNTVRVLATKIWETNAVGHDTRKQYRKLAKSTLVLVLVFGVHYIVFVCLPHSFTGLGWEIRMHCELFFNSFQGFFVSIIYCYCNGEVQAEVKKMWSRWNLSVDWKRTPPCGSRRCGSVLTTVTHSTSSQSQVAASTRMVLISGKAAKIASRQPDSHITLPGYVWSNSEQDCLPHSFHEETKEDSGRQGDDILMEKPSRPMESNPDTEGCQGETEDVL

Molecule: CCCC[C@H](NC(=O)[C@H](CO)NC(=O)[C@H](CO)NC(=O)[C@H](CC(C)C)NC(=O)[C@H](Cc1c[nH]cn1)NC(=O)[C@H](CCCCN)NC(=O)CNC(=O)[C@H](CC(C)C)NC(=O)[C@H](CC(N)=O)NC(=O)[C@H](Cc1c[nH]cn1)NC(=O)[C@H](CCCC)NC(=O)[C@H](Cc1ccccc1)NC(=O)[C@H](CCC(N)=O)NC(=O)[C@@H](NC(=O)[C@H](CCC(=O)O)NC(=O)[C@H](CO)NC(=O)[C@@H](NC(=O)[C@H](C)N)C(C)C)[C@@H](C)CC)C(=O)N[C@@H](CCC(=O)O)C(=O)N[C@@H](CCCNC(=N)N)C(=O)N[C@H](C(=O)N[C@@H](CCC(=O)O)C(=O)N[C@@H](Cc1c[nH]c2ccccc12)C(=O)N[C@@H](CC(C)C)C(=O)N[C@@H](CCCNC(=N)N)C(=O)N[C@@H](CCCCN)C(=O)N[C@@H](CCCCN)C(=O)N[C@@H](CC(C)C)C(=O)N[C@@H](CCC(N)=O)C(=O)N[C@@H](CC(=O)O)C(=O)N[C@H](C(=O)N[C@@H](Cc1c[nH]cn1)C(=O)N[C@@H](CC(N)=O)C(=O)N[C@@H](Cc1ccc(O)cc1)C(N)=O)C(C)C)C(C)C [[Nle^8,18, Tyr^34]bPTH(1-34)] (H-AVSEIQF[Nle]HNLGKHLSS[Nle]ERVEWLRKKLQDVHNY-NH2; N-terminus and C-terminus assumed)
Emax (rat PTH2 receptor; COS-7, read-out: Emax, % of response of hPTH2r to 1 μM hPTH(1-34), rat receptor response relative to human PTH2 receptor response measured in parallel): 5 ± 1%
Emax (rat PTH2 receptor; read-out: Emax, % of response of rPTH2r to 3 μM rPTH(1-34), intrinsic activity, COS-7): 19 ± 3%
Emax (PTH2 receptor [1]; read-out: Emax, % of response to 1 μM hPTH(1-34), intrinsic activity, COS-7): 76 ± 7%

Molecule: hPTH(1-34)
Emax, % of response of rPTH2r to 3 μM rPTH(1-34) (rat PTH2 receptor; intrinsic activity, COS-7): 43 ± 4%
Emax, % of response of hPTH2r to 1 μM hPTH(1-34) (rat PTH2 receptor; [6]): 22 ± 7%
Emax, % of response to 1 μM hPTH(1-34) (PTH2 receptor [1]; intrinsic activity, COS-7): 100%

Molecule: [D-Tryp^12, Tyr^34]bPTH(7–34) amide [[D-Tryp^12, Tyr^34]PTH(7–34)]
effect of human plasma on antagonist potency (human PTH1 receptor [3]): did not reduce the antagonist potency
difference of IC50 relative to TIP(7–39) (human PTH1 receptor [4]): 7.3 fold

Molecule: PTHrP(7–34) amide
effect of human plasma on antagonist potency (human PTH1 receptor [3]): did not reduce the antagonist potency

Molecule: hPTH(1-84)
Emax, % of response of rPTH2r to 3 μM rPTH(1-34) (rat PTH2 receptor; intrinsic activity, COS-7): 42 ± 5%
Emax, % of response of hPTH2r to 1 μM hPTH(1-34) (rat PTH2 receptor; [6]): 15 ± 4%
Emax, % of response to 1 μM hPTH(1-34) (PTH2 receptor [1]; intrinsic activity, COS-7): 79 ± 1%

The remaining lines, values ahead:

pA2 (rat PTH2 receptor; [5]): 6.5±0.2
pA2 as concentration (rat PTH2 receptor; [5]): 310 nM
basal cAMP accumulation, % of basal response in the absence of antagonist (rat PTH2 receptor; 1 μM antagonist, no rPTH(1–34)): 104±11%
pA2 (PTH2 receptor [1]; [5]): 6.5±0.1
pA2 as concentration (PTH2 receptor [1]; [5]): 320 nM
basal cAMP accumulation, % of basal response in the absence of antagonist (PTH2 receptor [1]; 1 μM antagonist, no rPTH(1–34)): 110±16%
Molecule: [Nle^8,18, D-Tryp^12, Tyr^34]bPTH(7–34) amide

Emax, % of response of rPTH2r to 3 μM rPTH(1-34) (rat PTH2 receptor; intrinsic activity, COS-7): 14 ± 1%
Emax, % of response of hPTH2r to 1 μM hPTH(1-34) (rat PTH2 receptor; [6]): 7 ± 3%
higher potency for the rat receptor than the human receptor (rat PTH2 receptor; rat vs human PTH2 receptor EC50): 14 fold
Emax, % of response to 1 μM hPTH(1-34) (PTH2 receptor [1]; intrinsic activity, COS-7): 25 ± 3%
Molecule: PTHrP(1-34)

IC50 (PTH2 receptor [2]): 1.1 nM
shift (increase) of IC50 produced by 10 μM GTPγS (PTH2 receptor [2]; centrifugation assay, [125I]TIP39): 1.5 fold
Molecule: CCCC[C@H](NC(=O)[C@H](CCCNC(=N)N)NC(=O)[C@H](CCC(=O)O)NC(=O)[C@@H](NC(=O)[C@H](CO)NC(=O)[C@H](C)NC(=O)[C@H](CC(C)C)NC(=O)[C@H](Cc1c[nH]cn1)NC(=O)[C@H](CCCCN)NC(=O)CNC(=O)[C@H](CC(C)C)NC(=O)[C@H](CC(N)=O)NC(=O)[C@H](Cc1c[nH]cn1)NC(=O)[C@H](CCCC)NC(=O)[C@H](CC(C)C)NC(=O)[C@H](CCC(N)=O)NC(=O)[C@@H](NC(=O)[C@H](CCC(=O)O)NC(=O)[C@H](CO)NC(=O)[C@@H](NC(=O)[C@H](C)N)C(C)C)[C@@H](C)CC)C(C)C)C(=O)N[C@@H](CCC(N)=O)C(=O)N[C@@H](Cc1c[nH]c2ccccc12)C(=O)N[C@@H](CC(C)C)C(=O)N[C@@H](CCCNC(=N)N)C(=O)N[C@@H](CCCCN)C(=O)N[C@@H](CCCCN)C(=O)N[C@@H](CC(C)C)C(=O)N[C@@H](CCC(N)=O)C(=O)N[C@@H](CC(=O)O)C(=O)N[C@H](C(=O)N[C@@H](Cc1c[nH]cn1)C(=O)N[C@@H](CC(N)=O)C(=O)N[C@@H](Cc1ccc(O)cc1)C(N)=O)C(C)C [[Nle^8,21, Tyr^34]rPTH(1–34), [Nle^8,21, Tyr^34]rPTH(1–34) amide]
